Data from publication PMC7901646, “Pyrrolo[2′,3′:3,4]cyclohepta[1,2-d][1,2]oxazoles, a New Class of Antimitotic Agents Active against Multiple Malignant Cell Types” (Journal of Medicinal Chemistry, 2020).
Where two headings read alike, the source gives them in different places.

How the values were obtained:
Type in all cases: cell-based
[1] = tested on: MINO (MCL); test: MTT cell proliferation, lymphoma; conditions: Homo sapiens, 72 h; for activity at 1 µM: of untreated cells, read-out: Proliferating cells (%); for IC50: MTT
Summary of the method: (§1)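 Lymphoma lines in RPMI-1640 with 10% FBS seeded at 1 × 10^5 cells/mL and treated with 1 μM, or in triplicate with serial dilutions over 40–10 000 nM, for 72 h at 37 °C, 5% CO2. Viability by MTT (4 h), SDS lysis, absorbance at 570 nm with medium-only blanks.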

[2] = tested on: VL51 idelalisib-resistant; test: MTT cell proliferation, lymphoma; conditions: Homo sapiens, 72 h, of untreated cells, read-out: Proliferating cells (%)
Summary of the method: as §1

[3] = tested on: VL51 (MZL); test: MTT cell proliferation, lymphoma; conditions: Homo sapiens, 72 h; for activity at 1 µM: of untreated cells, read-out: Proliferating cells (%); for IC50: MTT
Summary of the method: as §1

[4] = tested on: HBL1 (ABC DLBCL); test: MTT cell proliferation, lymphoma; conditions: Homo sapiens, 72 h; for activity at 1 µM: of untreated cells, read-out: Proliferating cells (%); for IC50: MTT
Summary of the method: as §1

[5] = tested on: SU-DHL-10 (GCB DLBCL); test: MTT cell proliferation, lymphoma; conditions: Homo sapiens, SU-DHL10, 72 h; for activity at 1 µM: of untreated cells, read-out: Proliferating cells (%); for IC50: MTT
Summary of the method: as §1

[6] = tested on: UO-31; test: NCI-60 screen; conditions: Homo sapiens, Renal Cancer
Protocol: (§2) All the synthesized compounds 51–76 were tested at a 10^–5 M concentration for their antitumor activity on the full NCI-60 panel comprising cancer cell lines derived from nine human cancer cell types (leukemia, non-small-cell lung, colon, central nervous system, melanoma, ovarian, renal, prostate, and breast).[50]

[7] = tested on: T-47D; test: NCI-60 screen; conditions: Homo sapiens, T47D; Breast Cancer
Protocol: as §2

[8] = tested on: HCC-2998; test: NCI-60 screen; conditions: Homo sapiens, Colon Cancer
Protocol: as §2

[9] = tested on: MDA-MB-468; test: NCI-60 screen; conditions: Homo sapiens, Breast Cancer
Protocol: as §2

[10] = tested on: HOP-92; test: NCI-60 screen; conditions: Homo sapiens, Non-Small-Cell Lung Cancer
Protocol: as §2

[11] = tested on: U251; test: NCI-60 screen; conditions: Homo sapiens, U-251; CNS Cancer
Protocol: as §2

[12] = tested on: NCI-H322M; test: NCI-60 screen; conditions: Homo sapiens, Non-Small-Cell Lung Cancer
Protocol: as §2

[13] = tested on: OVCAR-5; test: NCI-60 screen; conditions: Homo sapiens, Ovarian Cancer
Protocol: as §2

[14] = tested on: SN12C; test: NCI-60 screen; conditions: Homo sapiens, Renal Cancer
Protocol: as §2

[15] = tested on: NCI-H23; test: NCI-60 screen; conditions: Homo sapiens, Non-Small-Cell Lung Cancer
Protocol: as §2

[16] = tested on: OVCAR-8; test: NCI-60 screen; conditions: Homo sapiens, Ovarian Cancer
Protocol: as §2

[17] = tested on: SNB-75; test: NCI-60 screen; conditions: Homo sapiens, CNS Cancer
Protocol: as §2

[18] = tested on: 786–0; test: NCI-60 screen; conditions: Homo sapiens, Renal Cancer
Protocol: as §2

[19] = tested on: HS 578T; test: NCI-60 screen; conditions: Homo sapiens, Breast Cancer
Protocol: as §2

[20] = tested on: SF-539; test: NCI-60 screen; conditions: Homo sapiens, CNS Cancer
Protocol: as §2

[21] = tested on: BT-549; test: NCI-60 screen; conditions: Homo sapiens, Breast Cancer
Protocol: as §2

[22] = tested on: MALME-3M; test: NCI-60 screen; conditions: Homo sapiens, Melanoma
Protocol: as §2

[23] = tested on: OVCAR-4; test: NCI-60 screen; conditions: Homo sapiens, Ovarian Cancer
Protocol: as §2

[24] = tested on: SK-MEL-28; test: NCI-60 screen; conditions: Homo sapiens, Melanoma
Protocol: as §2

[25] = tested on: HOP-62; test: NCI-60 screen; conditions: Homo sapiens, Non-Small-Cell Lung Cancer
Protocol: as §2

[26] = tested on: RXF 393; test: NCI-60 screen; conditions: Homo sapiens, Renal Cancer
Protocol: as §2

[27] = tested on: NCI-60 panel of human cancer cell lines; test: NCI in vitro human tumor cell line screening, full panel; conditions: for MG_MID (mean graph midpoint): arithmetic mean for all tested cancer cell lines
Text: on the full NCI-60 panel comprising cancer cell lines derived from nine human cancer cell types (leukemia, non-small-cell lung, colon, central nervous system, melanoma, ovarian, renal, prostate, and breast).[50]

[28] = tested on: SK-MEL-2; test: NCI-60 screen; conditions: Homo sapiens, Melanoma
Protocol: as §2

[29] = Homo sapiens, full NCI panel, five concentrations 10^–4–10^–8 M, read-out: GI50 (concentration that inhibits 50% net cell growth), range over panel
[30] = full NCI panel, five concentrations 10^–4–10^–8 M, read-out: GI50 (concentration that inhibits 50% net cell growth), range over panel

Structure (SMILES) | activity at 1 µM [1] [%] | IC50 [1] [nM] | activity at 1 µM [2] [%] | activity at 1 µM [3] [%] | IC50 [3] [nM] | activity at 1 µM [4] [%] | IC50 [4] [nM] | activity at 1 µM [5] [%] | IC50 [5] [nM] | GI50 [6] [nM] | GI50 [7] [nM] | GI50 [9] [nM] | GI50 [13] [nM] | GI50 [14] [nM] | GI50 [16] [nM] | GI50 [17] [nM] | GI50 [18] [nM] | GI50 [19] [nM] | GI50 [20] [nM] | MG_MID (mean graph midpoint) ([27]; full NCI panel) [µM] | further results
CCOC(=O)c1cc2c(n1Cc1ccccc1OC)-c1oncc1CCC2 [Compound 62, Ethyl 9-(2-Methoxybenzyl)-4,5,6,9-tetrahydropyrrolo[2′,3′:3,4]cyclohepta[1,2-d][1,2]oxazole-8-carboxylate] | 104 | 4000 | 63.6 | 71.3 | 3200 | 128 | > 5000 | 51.1 | 3600 | 6530 | 2460 | 2950 | > 100000 | > 100000 | 3850 | 1970 | > 100000 | 3380 | 2480 | 4.47 | GI50 [8]: > 100000 nM; GI50 [10]: 300 nM; GI50 [11]: 3780 nM; GI50 [12]: 5230 nM; GI50 [15]: 8520 nM; GI50 [21]: 7730 nM; GI50 [22]: 3080 nM; GI50 [23]: 9350 nM; GI50 [24]: > 100000 nM; GI50 [25]: 1890 nM; GI50 [26]: 2080 nM; GI50 [27, 29]: 300 to 46200 nM
CCOC(=O)c1cc2c(n1Cc1cccc(OC)c1)-c1oncc1CCC2 [Compound 63, Ethyl 9-(3-Methoxybenzyl)-4,5,6,9-tetrahydropyrrolo[2′,3′:3,4]cyclohepta[1,2-d][1,2]oxazole-8-carboxylate] | 86.3 | 2600 | 62.3 | 66.7 | 2300 | 117 | > 5000 | 51.5 | 3000 | 3370 | 2000 | 340 | 5940 | 3510 | 3130 | 1600 | 6740 | 1600 | 1140 | 1.45 | GI50 [8]: 4180 nM; GI50 [10]: 4210 nM; GI50 [21]: 980 nM; GI50 [28]: 560 nM; GI50 [22]: 890 nM; GI50 [23]: 18700 nM; GI50 [24]: 5120 nM; GI50 [25]: 4340 nM; GI50 [26]: 670 nM; GI50 [27, 29]: 150 to 18700 nM
CCOC(=O)c1cc2c(n1Cc1cc(OC)cc(OC)c1)-c1oncc1CCC2 [Compound 66, Ethyl 9-(3,5-Dimethoxybenzyl)-4,5,6,9-tetrahydropyrrolo[2′,3′:3,4]cyclohepta[1,2-d][1,2]oxazole-8-carboxylate] | 9.1 | 250 | 34.3 | 40.1 | 250 | 24.1 | 300 | 11.3 | 250 | 50 |  | 30 | 180 | 70 | 80 | 30 | 50 | 40 | 30 | 0.08 | GI50 [8]: 230 nM; GI50 [21]: 1720 nM; GI50 [28]: 40 nM; GI50 [23]: 13400 nM; GI50 [24]: 90 nM; GI50 [26]: 20 nM; GI50 ([27]; Homo sapiens, prostate subpanel, read-out: GI50): 40 nM; mean values of subpanel ([27]; colon and CNS cancers): 0.06 µM; GI50 [27, 30]: 10 to 13400 nM; calculated MG_MID value for each subpanel ([27]; melanoma, prostate and renal subpanels): 0.04 µM
CCOC(=O)c1cc2c(n1Cc1cc(OC)c(OC)c(OC)c1)-c1oncc1CCC2 [Compound 67, Ethyl 9-(3,4,5-Trimethoxybenzyl)-4,5,6,9-tetrahydropyrrolo[2′,3′:3,4]cyclohepta[1,2-d][1,2]oxazole-8-carboxylate] | 8.9 | 600 | 36.6 | 40.5 | 500 | 24.2 | 900 | 11.2 | 600 | 80 | 100 | 740 | 530 | 760 | 240 | 70 | 970 | 340 | 120 | 0.20 | GI50 [8]: 300 nM; GI50 [11]: 140 nM; GI50 [12]: 320 nM; GI50 [15]: 370 nM; GI50 [21]: 290 nM; GI50 [22]: 50 nM; GI50 [23]: 720 nM; GI50 [24]: 300 nM; GI50 [25]: 170 nM; GI50 [26]: 120 nM; GI50 [27, 30]: 10 to 64900 nM
CCOC(=O)c1c(Cl)c2c(n1Cc1ccccc1)-c1oncc1CCC2 [Compound 70, Ethyl 7-Chloro-9-benzyl-4,5,6,9-tetrahydropyrrolo[2′,3′:3,4]cyclohepta[1,2-d][1,2]oxazole-8-carboxylate] | 104 | > 10000 | 111 | 108 | > 10000 | 104 | > 10000 | 69.5 | 9000 |  | 2690 |  | > 100000 |  |  |  |  |  |  | 7.08 | GI50 [12]: > 100000 nM; GI50 [22]: 3680 nM; GI50 [25]: 4350 nM; GI50 [27, 29]: 1290 to 5890 nM
CCOC(=O)c1c(Cl)c2c(n1Cc1cc(OC)cc(OC)c1)-c1oncc1CCC2 [Compound 75, Ethyl 7-Chloro-9-(3,5-dimethoxybenzyl)-4,5,6,9-tetrahydropyrrolo[2′,3′:3,4]cyclohepta[1,2-d][1,2]oxazole-8-carboxylate] | 9.5 | 900 | 40.2 | 38.1 | 800 | 20.7 | 900 | 11.5 | 900 | 780 | 440 | 730 |  | 830 | 410 | 220 | 4240 | 450 | 240 | 0.41 | GI50 [10]: 460 nM; GI50 [11]: 310 nM; GI50 [12]: 510 nM; GI50 [15]: 680 nM; GI50 [21]: 27000 nM; GI50 [28]: 220 nM; GI50 [22]: 200 nM; GI50 [23]: 850 nM; GI50 [24]: 660 nM; GI50 [25]: 290 nM; GI50 [26]: 250 nM; GI50 [27, 29]: 30 to 27000 nM
